# Values quoted from earlier work as cited in patent US12004493B2, “Late-onset Alzheimer's disease animal model and uses thereof” (The Board of Regents of the University of Oklahoma, priority 2018, dated 2024).
# Test system: early-phase AD patients
# Details: DAO inhibitor
smiles,measurement,value
O=C([O-])c1ccccc1.[Na+] [Sodium benzoate],cognitive and overall functions,improved cognitive and overall functions
